Columns and labels:
[1] = target: human orexin-1 receptor (Homo sapiens (Human), UniProt O43613); assay: In vitro assay: intracellular calcium measurements (FLIPR), antagonistic activity; format: cell-based; settings: CHO cells expressing human orexin-1 receptor, orexin-A agonist, geometric mean, read-out: IC50 Ox1
Procedure, shortened: (§1)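 In this FLIPR calcium assay, antagonists were given 120 min on CHO cells with human OX1 or OX2 receptor before orexin-A (3 nM final) was added. Peak fluorescence was measured at 1 s intervals against the uninhibited agonist peak, and IC50s were averaged geometrically.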

[2] = target: human orexin-2 receptor (Homo sapiens (Human), UniProt O43614); assay: as above; format: cell-based; settings: CHO cells expressing human orexin-2 receptor, orexin-A agonist, geometric mean, read-out: IC50 Ox2
Sequence of human orexin-2 receptor (O43614 whole entry): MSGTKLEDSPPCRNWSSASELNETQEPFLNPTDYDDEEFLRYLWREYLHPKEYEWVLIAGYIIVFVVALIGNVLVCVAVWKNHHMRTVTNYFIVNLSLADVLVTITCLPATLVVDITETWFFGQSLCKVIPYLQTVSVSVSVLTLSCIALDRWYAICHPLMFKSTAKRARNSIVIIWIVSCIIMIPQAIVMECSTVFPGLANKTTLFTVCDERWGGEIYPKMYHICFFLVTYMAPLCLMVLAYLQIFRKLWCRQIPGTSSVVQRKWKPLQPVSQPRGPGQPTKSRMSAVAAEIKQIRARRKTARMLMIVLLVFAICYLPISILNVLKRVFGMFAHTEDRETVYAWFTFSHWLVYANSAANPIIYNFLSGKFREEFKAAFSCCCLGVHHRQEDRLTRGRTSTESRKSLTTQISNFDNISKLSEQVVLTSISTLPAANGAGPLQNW
Procedure, shortened: as §1

Sequence of human orexin-1 receptor (O43613 whole entry): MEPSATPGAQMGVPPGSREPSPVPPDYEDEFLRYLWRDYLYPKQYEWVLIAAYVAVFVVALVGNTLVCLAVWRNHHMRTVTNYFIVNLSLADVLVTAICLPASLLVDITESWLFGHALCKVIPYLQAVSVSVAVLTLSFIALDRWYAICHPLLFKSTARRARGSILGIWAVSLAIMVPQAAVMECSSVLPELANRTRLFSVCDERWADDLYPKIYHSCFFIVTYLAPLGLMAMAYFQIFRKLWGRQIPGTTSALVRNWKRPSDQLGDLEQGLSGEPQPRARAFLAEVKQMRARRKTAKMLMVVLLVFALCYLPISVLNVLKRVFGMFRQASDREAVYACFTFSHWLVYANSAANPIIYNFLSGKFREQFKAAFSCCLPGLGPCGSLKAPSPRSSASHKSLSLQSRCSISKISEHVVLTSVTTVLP

SMILES | IC50 [1] | IC50 [2]
Cc1nc(C(=O)N2CCCC2c2nc3c4c(ccc3[nH]2)OCCO4)c(-c2cccc(Cl)c2)s1 (racemic) [Ex. 1.117] | 0.136 µM | 0.056 µM
C=C1C[C@@H](c2nc3cc(C(C)(C)C)ccc3[nH]2)N(C(=O)c2cc(C)ccc2-n2nccn2)C1 [Ex. 6.66] | 0.057 µM | 0.002 µM
Cc1cc(Cl)cc2[nH]c([C@@H]3[C@@H](C)CCN3C(=O)c3cc(Cl)ccc3-n3nccn3)nc12 [Ex. 4.91] | 0.017 µM | 0.183 µM
C[C@@]1(c2nc3cc(C(F)(F)F)c(Cl)cc3[nH]2)CCCN1C(=O)c1c(F)cccc1-n1nccn1 [Ex. 5.133] | 0.011 µM | 0.045 µM
Cc1ccc(-c2ccc(OC(F)(F)F)cc2)c(C(=O)N2CCC[C@@]2(C)c2nc3cc(C(F)(F)F)ccc3[nH]2)c1 [Ex. 5.187] | 0.31 µM | > 2.59 µM
Cc1ccc(-c2ncccn2)c(C(=O)N2CCC[C@@]2(C)c2nc3c(C)c(Cl)ccc3[nH]2)c1 [Ex. 5.214] | 0.002 µM | 0.004 µM
CSc1cccc2nc([C@@H]3CCCN3C(=O)c3c(F)cccc3-n3nccn3)[nH]c12 [Ex. 1.164] | 0.217 µM | 0.024 µM
Cc1ccc(-n2nccn2)c(C(=O)N2CCC[C@H]2c2nc3cccc(Cl)c3[nH]2)c1 [Ex. 1.6] | 0.202 µM | 0.046 µM
COc1ccccc1-c1ccc(C)cc1C(=O)N1CCC[C@@]1(C)c1nc2cc(C)c(C)cc2[nH]1 [Ex. 5.92] | 0.062 µM | 0.177 µM
C=C1C[C@@H](c2nc3cc(C(C)(C)C)ccc3[nH]2)N(C(=O)c2c(-n3nccn3)ccc(OC)c2F)C1 [Ex. 6.163] | 0.259 µM | 0.072 µM
C=C1C[C@@H](c2nc3cc(C)c(C)cc3n2C)N(C(=O)c2cc(C)ccc2-n2nccn2)C1 [Ex. 7.2] | 0.42 µM | 0.069 µM
Cc1cc(F)ccc1-c1nc(C(=O)N2CCC[C@@]2(C)c2nc3c(C)c(Cl)ccc3[nH]2)c(-c2ccc(F)cc2)s1 [Ex. 5.259] | 0.029 µM | 4.66 µM
C=C1C[C@@H](c2nc3c(C)cc(C)cc3[nH]2)N(C(=O)c2nc(C)sc2-c2ccc(C)c(C)c2)C1 [Ex. 6.58] | 0.004 µM | 0.001 µM
CSc1cccc2nc([C@@H]3CCCN3C(=O)c3cc(C)ccc3-n3nccn3)[nH]c12 [Ex. 1.5] | 0.056 µM | 0.023 µM
CCn1c([C@]2(C)CCCN2C(=O)c2cc(C)ccc2-c2cccc(OC)c2)nc2cc(C)c(C)cc21 [Ex. 7.44] | 0.021 µM | 0.035 µM
Cc1c(Cl)ccc2[nH]c([C@]3(C)CCCN3C(=O)c3cc(F)ccc3-c3ncccn3)nc12 [Ex. 5.224] | 0.007 µM | 0.021 µM
COc1cccc2[nH]c([C@@H]3[C@@H](C)CCN3C(=O)c3nc(C)sc3-c3cccc(Cl)c3)nc12 [Ex. 4.14] | 0.015 µM | 4.03 µM
C=C1CC(c2nc3cccc(SC)c3[nH]2)N(C(=O)c2nc(C3CC3)sc2-c2cccc(C)c2)C1 (racemic) [Ex. 6.87] | 0.001 µM | 0.002 µM
C=C1CC(c2nc3cc(C(C)(C)C)ccc3[nH]2)N(C(=O)c2cc(C)sc2-c2ccc(C)c(C)c2)C1 (centres unmarked) [Ex. 6.81] | 0.019 µM | 0.023 µM
C=C1C[C@@H](c2nc3ccc(Cl)c(C)c3[nH]2)N(C(=O)c2nc(C)sc2-c2cccc(Br)c2)C1 [Ex. 6.123] | 0.002 µM | 0.0007 µM

SMILES | IC50 [1] | IC50 [2]
Cc1nc(C(=O)N2CCC[C@@]2(C)c2nc3c(F)c(F)ccc3[nH]2)c(-c2ccc(Cl)cc2)s1 [Ex. 5.211] | 0.027 µM | 0.159 µM
Cc1ccc(-c2ccccc2C(=O)N2CC[C@H](C)[C@H]2c2nc3c(C)c(Cl)ccc3[nH]2)cc1 [Ex. 4.61] | 0.0009 µM | 0.072 µM
Cc1ccc(-c2sc(N(C)C)nc2C(=O)N2CC[C@H](C)[C@H]2c2nc3c(Cl)cccc3[nH]2)cc1C [Ex. 4.128] | 0.001 µM | 0.387 µM
C=C1CC(c2nc3c(Br)cccc3[nH]2)N(C(=O)c2cc(C)sc2-c2ccc(C)c(C)c2)C1 (centres unmarked) [Ex. 6.78] | 0.005 µM | 0.012 µM
CSc1cccc2nc([C@@H]3CCCN3C(=O)c3c(C)cccc3-n3nccn3)[nH]c12 [Ex. 1.170] | 0.258 µM | 0.02 µM
COc1cc2nc([C@]3(C)CCCN3C(=O)c3ccccc3-n3cccn3)[nH]c2cc1OC [Ex. 5.81] | 0.258 µM | 0.13 µM
C=C1C[C@@H](c2nc3cc(C(C)(C)C)ccc3[nH]2)N(C(=O)c2c(-n3nccn3)ccc(C)c2F)C1 [Ex. 6.164] | 0.1 µM | 0.009 µM
Cc1nc(C(=O)N2CCCC2c2nc3cc(C)c(C)cc3[nH]2)c(-c2ccccc2)s1 (centres unmarked) [Ex. 1.122] | 0.055 µM | 0.045 µM
C=C1C[C@@H](c2nc3ccc(Cl)c(C)c3[nH]2)N(C(=O)c2cc(Cl)ccc2-n2nccn2)C1 [Ex. 6.128] | 0.02 µM | 0.001 µM
COc1ccc(-c2ccc(C)cc2C(=O)N2CCC[C@@]2(C)c2nc3cc(C(F)(F)F)ccc3[nH]2)cc1 [Ex. 5.191] | 0.018 µM | 0.069 µM
CCn1c([C@]2(C)CCCN2C(=O)c2cc(C)c(C)cc2-n2nccn2)nc2cc(OC)c(OC)cc21 [Ex. 7.14] | 0.023 µM | 0.05 µM
Cc1ccc(-c2ccc(F)cc2C)c(C(=O)N2CCC[C@@]2(C)c2nc3cc(C(F)(F)F)ccc3[nH]2)c1 [Ex. 5.181] | 0.385 µM | 0.556 µM
C=C1C[C@@H](c2nc3ccc(Cl)c(C)c3[nH]2)N(C(=O)c2nc(C)sc2-c2cccc(C(F)(F)F)c2)C1 [Ex. 6.120] | 0.008 µM | 0.0006 µM
C=C1CN(C(=O)c2cc(OC)ccc2-n2nccn2)C(C)(c2nc3cc(OC)ccc3[nH]2)C1 (centres unmarked) [Ex. 6.158] | 0.057 µM | 0.035 µM
Cc1ccc(-c2ccc(F)cc2C)c(C(=O)N2CCC[C@@]2(C)c2nc3c(C)c(C)ccc3[nH]2)c1 [Ex. 5.108] | 0.265 µM | 0.161 µM
Cc1cccc(-c2ccc(C)cc2C(=O)N2CCC[C@@]2(C)c2nc3cc(C)c(C)cc3[nH]2)c1 [Ex. 5.99] | 0.006 µM | 0.011 µM
Cc1ccc(-c2ccccc2)c(C(=O)N2CCC[C@@]2(C)c2nc3c(C)c(Cl)ccc3[nH]2)c1 [Ex. 5.223] | 0.003 µM | 0.012 µM
Cc1ccc(C(=O)N2CC[C@H](C)[C@H]2c2nc3cc(C)c(C)cc3[nH]2)c(-n2nccn2)c1 [Ex. 4.82] | 0.004 µM | 0.032 µM
CSc1cccc2nc([C@@H]3CCCN3C(=O)c3cc(Cl)ccc3-n3nccn3)[nH]c12 [Ex. 1.165] | 0.076 µM | 0.009 µM
COc1cccc(-c2ccc(C)cc2C(=O)N2CCC[C@@]2(C)c2nc3cc(C)c(C)cc3n2CCF)c1 [Ex. 7.51] | 0.019 µM | 0.027 µM

SMILES | IC50 [1] | IC50 [2]
Cc1nc(C(=O)N2CCCC2c2nc3c(CO)cccc3[nH]2)c(-c2cccc(Cl)c2)s1 (centres unmarked) [Ex. 1.103] | 0.364 µM | 0.112 µM
Cc1ccc2[nH]c([C@]3(C)CCCN3C(=O)c3ccccc3-c3cccc(F)c3)nc2c1C [Ex. 5.116] | 0.039 µM | 0.019 µM
Cc1ccc(-n2nccn2)c(C(=O)N2C[C@@H](F)C[C@H]2c2nc3ccc(Cl)c(C)c3[nH]2)c1 [Example 2.1, ((2S,4S)-2-(6-chloro-7-methyl-1H-benzo[d]imidazol-2-yl)-4-fluoropyrrolidin-1-yl)(5-methyl-2-(2H-1,2,3-triazol-2-yl)phenyl)methanone] | 0.056 µM | 0.053 µM
C=C1C[C@@H](c2nc3cc(OC)ccc3[nH]2)N(C(=O)c2nc(C)sc2-c2ccc(C)c(C)c2)C1 [Ex. 6.9] | 0.007 µM | 0.004 µM
C=C1CC(c2nc3cc(C(C)(C)C)ccc3[nH]2)N(C(=O)c2nc(C3CC3)sc2-c2cccc(C)c2)C1 (centres unmarked) [Ex. 6.96] | 0.234 µM | 0.068 µM
CSc1cccc2nc([C@@H]3CCCN3C(=O)c3ccc(C)cc3-n3nccn3)[nH]c12 [Ex. 1.169] | 0.037 µM | 0.003 µM
Cc1ccc(C(=O)N2CC[C@H](C)[C@H]2c2nc3cc(Cl)c(C)cc3[nH]2)c(-c2ncccn2)c1 [Ex. 4.130] | 0.011 µM | 0.128 µM
C=C1C[C@@H](c2nc3cc(SC)ccc3[nH]2)N(C(=O)c2nc(C)sc2-c2ccc(C)c(C)c2)C1 [Ex. 6.52] | 0.008 µM | 0.002 µM
Cc1nc(C(=O)N2CC[C@H](C)[C@H]2c2nc3c(Cl)cccc3[nH]2)c(-c2ccc(C)c(C)c2)s1 [Ex. 4.125] | 0.001 µM | 0.081 µM
Cc1ccc(-c2sc(C)nc2C(=O)N2CC[C@H](C)[C@H]2c2nc3c(Cl)cccc3[nH]2)cc1 [Ex. 4.124] | 0.008 µM | 0.591 µM
Cc1nc(C(=O)N2CC[C@H](C)[C@H]2c2nc3cc(C(F)(F)F)ccc3[nH]2)c(-c2ccc(F)cc2)s1 [Ex. 4.136] | 0.014 µM | 4.36 µM
CO[C@H]1CN(C(=O)c2nc(C)sc2-c2cccc(Cl)c2)C(C)(c2nc3c(C)c(Cl)ccc3[nH]2)C1 (some centres unmarked) [Ex. 3.27] | 0.005 µM | 0.016 µM
COCCn1c([C@]2(C)CCCN2C(=O)c2cc(C)ccc2-c2cccc(C)c2)nc2cc(C)c(C)cc21 [Ex. 7.29] | 0.023 µM | 0.07 µM
COc1cccc(-c2sc(C)nc2C(=O)N2CC[C@H](C)[C@H]2c2nc3cc(C(F)(F)F)ccc3[nH]2)c1 [Ex. 4.137] | 0.005 µM | 3.09 µM
COc1cccc(-c2ccc(C)cc2C(=O)N2CCC[C@@]2(C)c2nc3cc(C)c(C)cc3[nH]2)c1 [Ex. 5.93] | 0.015 µM | 0.019 µM
CO[C@H]1CN(C(=O)c2c(-n3nccn3)ccc(C)c2F)C(C)(c2nc3c(C)c(Cl)ccc3[nH]2)C1 (some centres unmarked) [Ex. 3.47] | 0.225 µM | 0.471 µM
Cc1ccc(-n2nccn2)c(C(=O)N2CCC[C@@]2(C)c2nc3cc(Cl)ccc3[nH]2)c1 [Ex. 5.11] | 0.029 µM | 0.413 µM
C=C1CC(c2nc3c(C)cccc3[nH]2)N(C(=O)c2cc(C)sc2-c2ccc(C)c(C)c2)C1 (centres unmarked) [Ex. 6.79] | 0.002 µM | 0.004 µM

From patent US9732075B2, “Benzimidazole-proline derivatives” (IDORSIA PHARMACEUTICALS LTD, priority 2012, dated 2017)
